Laboratory results as given in US20040175691A1, “Use of the KCNQ2 and KCNQ3 genes for the discovery of agents useful in the treatment of neurological disorders” (priority 1998, published 2004).
Like-named read-outs stand apart in the source and are kept apart here.

Legend:
M-current [1] = molecular target: T1, M-current (Rattus norvegicus, UniProt O88943+O88944); conditions: data adapted from Costa and Brown; read-out: IC50 for blockade of M-current; cited from earlier work
T1 construct: Recordings of the M-current in sympathetic neurons in intact ganglia were performed at room temperature; from tissue

[2] = mammalian CNS; cited from earlier work
KCNQ2 [3] = molecular target: T2, KCNQ2 (Homo sapiens, UniProt O43526, DEL417-446); experiment: Blockade of KCNQ2 channels expressed in Xenopus oocytes; format: cell-based; parameters: Full-length KCNQ2 cDNAs were amplified from adult human brain cDNA; expressed in transfected cells; host or cells: Xenopus oocytes injected with cRNA; conditions: oocytes; mean±s.e.m.
Method: Method: Full-length KCNQ2 cDNAs were amplified from adult human brain cDNA using the following primers ([…], […]) with the Expand Fidelity enzyme mixture (Boehringer Mannheim, Indianapolis). […] This region is also alternatively spliced in the KCNQ2 cDNA clone described by Biervert et al. (1998). Preparation, injection of cRNA and recording from oocytes was performed at room temperature as described previously (Dixon et al. 1996). The standard extracellular recording solution contained: 82 mM NaCl, 2 mM KCl, 1.8 mM CaCl2, 1 mM MgCl2, and 5 mM Na-HEPES (pH 7.6). Data collection and analysis were performed using pClamp software (Axon Instruments, Foster City, Calif.).
IC50 values are all expressed in μM, mean±s.e.m.

M-current [4] = molecular target: T1, M-current; experiment: Blockade of native M-current in SCG neurons (voltage clamp, intact ganglia); format: cell-based; conditions: native M-current, SCG neurons; mean±s.e.m.
Method: Method: Recordings of the M-current in sympathetic neurons in intact ganglia were performed at room temperature as described previously (Wang and McKinnon, 1995). The standard extracellular recording solution was: NaCl (133 mM, KCl (4.7 mM), NaH2PO4 (1.3 mM), NaHCO3 (16.3 mM), CaCl2 (2 mM), MgCl2 (1.2 mM) and glucose (1.4 g/liter), bubbled with 95% O2-5% CO2 to give pH 7.2-7.4.
A. Blockade of M-current in SCG neurons by XE991. Holding potential was −30 mV and step potential was −50 mV for 1 second. The shift in holding current following drug application is due to the inhibition of M-current activated at the holding potential.
Maximal block of native M-current was 93±2%. Data points are averages and error bars represent s.e.m.

KCNQ2 [5] = molecular target: T2, KCNQ2; experiment: Perforated-patch voltage clamp of HEK 293E cells stably expressing hKCNQ2; format: cell-based; parameters: Full-length hKCNQ2 cDNAs were amplified from adult human brain cDNA; expressed in transfected cells; host or cells: 293 EBNA (HEK 293E) cells, episomal plasmid pm3AR-hKCNQ2-1, hygromycin B selection; conditions: FIG. 5 (0.3 uM)
Method: To determine whether the hygromycin B resistant HEK 293E cells express functional hKCNQ2 channels, the presence of potassium currents was evaluated using the perforated-patch voltage-clamp technique. Briefly, cells growing on plastic Petri dishes or poly-D-lysine-coated glass coverslips in DMEM (with 10% FBS and 250 ug/ml hygromycin B) at 37° C. and 5% CO2 were removed from the incubator and allowed to reach room temperature. Growth medium was replaced with a bathing solution containing, in mM: 140 NaCl, 3 KC1, 2.5 CaCl2, 1 MgCl2, 10 HEPES, 10 dextrose, pH adjusted to 7.2-7.4 with NaOH and osmolarity adjusted to 305-310 mosm with water. […]
Stock solution(s) of test compound(s) was (were) prepared immediately before use. […] Generally, the stock solution is about 0.1 mM to about 100 mM in DMSO and the aliquot is about 5 to about 100 uL, but it is understood that the concentration and volumes are not limited to these ranges for one skilled in the art can readily determine the appropriate concentrations and volumes dependening on the activity of the compound in the assay and the sensitivity of detection. […]

Row | IC50 (KCNQ2 [3]) | IC50 (M-current [4]) | Block of hKCNQ2 current (KCNQ2 [5]) | SMILES | IC50 (M-current [1]) | K+-stimulated release of acetylcholine, dopamine and glutamate [2]
1 | 4.8 ± 0.6 µM | – | – | O=C1N(c2ccccc2)c2ccccc2C1(Cc1ccncc1)Cc1ccncc1 [Linopirdine, 3,3-bis(4-pyridinylmethyl)-1-phenylindolin-2-one] | 7 ± 1.1 µM | enhance K^+-stimulated release of acetylcholine, dopamine and glutamate
2 | 0.71 ± 0.07 µM | 0.98 ± 0.15 µM | reversibly blocks hKCNQ2 | O=C1c2ccccc2C(Cc2ccncc2)(Cc2ccncc2)c2ccccc21 [XE991, 10,10-bis(4-pyridinylmethyl)-9(10H)-anthracenone] | – | –
